Results from patent publication US20240316155A1, “COMPOSITION FOR TREATING SHORT BOWEL SYNDROME” (ZEALAND PHARMA A/S, priority 2021, published 2024).
*1 amine or outer side, *2 acyl side, *3 side chain or, on linkers, in order; H or OH if unused. Side-chain parts run from the residue outwards. [ ]: non-standard residue; d: D form. The star is where a group is joined. C18 diacid = O=C(O)CCCCCCCCCCCCCCCCC(=O)*; γGlu = O=C(O)[C@H](CCC(=O)[*:2])N[*:1]; Aib = CC(C)(N)C(=O)O

Experiments:
SBS patients = details: cited from earlier work
SBS mice = details: cited from earlier work
[1] = test system: Short Bowel Syndrome (SBS) mice; experiment: Short bowel syndrome (SBS) mice, ileum and cecum resection (ICR): postoperative survival, body weight, dietary intake; format: in vivo, C57BL/6J mice; details: ICR-resected mice
Text: (§1) Adult, male C57BL/6J mice with ˜30 g body weight of ˜4 months received a 12-cm ileum and cecum resection (ICR) with jejunocolonic anastomosis (see FIG. 1, middle). The mice were then randomly assigned to either Cpd 18 or vehicle treatment As control for the abdominal surgery, the sham group was included which had laparotomy, bowel exposure, transection and end-to-end anastomosis but no resection (see FIG. 1, bottom). To prevent intestinal obstruction, all mice were switched to liquid diet 2 days before surgery and maintained on this diet until the end of the experiment. Throughout the experiment, animals were singly housed. All mice were studied with the intention to survive to day 14.
Briefly, mice were anesthetized by i. p. injection of ketamine (100 mg/kg bw) and xylazine (15 mg/kg bw) and orally intubated and ventilated. After midline incision, the distal small bowel and the cecum were exposed and then transected 12 cm proximal to the ileocecal junction and immediately distal to the cecum. The resected bowel was removed, and the length of the specimen was measured. An end-to-end, jejunocolonic anastomosis was created and the abdomen was closed. In the sham group, laparotomy, bowel exposure, transection and end-to-end anastomosis but no resection was performed. Immediately after surgery, all mice were weighed and received 1 ml isotonic saline subcutaneously and carprofen 5 mg/kg body weight. All surgical procedures were performed by the same surgeon. Mice were kept in a heated terrarium (29° C.) for 4 h and then returned to individual cages with free access to liquid food and water. The liquid diet was provided in feeding tubes. Mice were allowed to recover for a day after surgery, and then injected once daily with 30 nmol/kg body weight of Cpd 18. […]
Mice were scored for wellbeing daily as described (Berlin et al. 2019). If the wellness score dropped to below 4 pts, or when weight loss exceeded 20%, the mouse was immediately killed and not analyzed further. […]
Body weight (FIG. 6) and food consumption (FIG. 7) was measured daily. […]

[2] = test system: Short Bowel Syndrome (SBS) mice; experiment: SBS mice (ICR): stool water content; format: in vivo, C57BL/6J mice; details: ICR-resected mice
Text: as §1
Briefly, mice were anesthetized by i. p. injection of ketamine (100 mg/kg bw) and xylazine (15 mg/kg bw) and orally intubated and ventilated. After midline incision, the distal small bowel and the cecum were exposed and then transected 12 cm proximal to the ileocecal junction and immediately distal to the cecum. The resected bowel was removed, and the length of the specimen was measured. An end-to-end, jejunocolonic anastomosis was created and the abdomen was closed. In the sham group, laparotomy, bowel exposure, transection and end-to-end anastomosis but no resection was performed. Immediately after surgery, all mice were weighed and received 1 ml isotonic saline subcutaneously and carprofen 5 mg/kg body weight. All surgical procedures were performed by the same surgeon. Mice were kept in a heated terrarium (29° C.) for 4 h and then returned to individual cages with free access to liquid food and water. The liquid diet was provided in feeding tubes. Mice were allowed to recover for a day after surgery, and then injected once daily with 30 nmol/kg body weight of Cpd 18. 50 mM Histidine buffer pH 6, 200 mM Mannitol served as vehicle control.
Stools were collected on selected days throughout the experiment. Stool water content was assessed by collecting stools in a pre-weighed tube, weighing, and then drying overnight at 80° C. and reweighing the dried stools. […]

[3] = test system: Short Bowel Syndrome (SBS) mice; experiment: SBS mice (ICR): visual assessment of stool consistency with reference to Bristol Stool type; format: in vivo, C57BL/6J mice
Text: as §1
Briefly, mice were anesthetized by i. p. injection of ketamine (100 mg/kg bw) and xylazine (15 mg/kg bw) and orally intubated and ventilated. After midline incision, the distal small bowel and the cecum were exposed and then transected 12 cm proximal to the ileocecal junction and immediately distal to the cecum. The resected bowel was removed, and the length of the specimen was measured. An end-to-end, jejunocolonic anastomosis was created and the abdomen was closed. In the sham group, laparotomy, bowel exposure, transection and end-to-end anastomosis but no resection was performed. […]

Molecule | effect on diarrhea (SBS patients) | effect on treatment of diarrhea (SBS mice) | survival rate after 14 days ([1]; 30 nmol/kg once daily from day 1 after surgery, vehicle 60%, sham 90%) [%] | postoperative relative body weight (relative to initial weight) ([1]; 30 nmol/kg once daily, compared to vehicle, up to day 14) | postoperative dietary intake ([1]; 30 nmol/kg once daily, from day 2 onwards, compared to vehicle) | stool water content ([2]; 30 nmol/kg once daily, day 14, vehicle approximately 75%, sham 50%) | stool water content compared to vehicle ([2]; 30 nmol/kg once daily, from day 7) | stool water content ([2]; after 2 days) | stool consistency, Bristol Stool type ([3]; day 5 after resection, vehicle Type 6 or 7, sham Type 3 or 4) | stool consistency, Bristol Stool type ([3]; day 14, vehicle Type 6 or 7)
CC[C@H](C)[C@H](NC(=O)[C@H](Cc1ccccc1)NC(=O)[C@H](CC(=O)O)NC(=O)[C@H](CCCNC(=N)N)NC(=O)[C@H](C)NC(=O)[C@H](C)NC(=O)[C@H](CC(C)C)NC(=O)[C@H](CC(N)=O)NC(=O)[C@H](CC(=O)O)NC(=O)[C@H](CC(C)C)NC(=O)[C@@H](NC(=O)[C@@H](NC(=O)[C@H](CC(N)=O)NC(=O)[C@H](CCSC)NC(=O)[C@H](CCC(=O)O)NC(=O)[C@H](CC(=O)O)NC(=O)[C@H](CO)NC(=O)[C@H](Cc1ccccc1)NC(=O)[C@H](CO)NC(=O)CNC(=O)[C@H](CC(=O)O)NC(=O)CNC(=O)[C@@H](N)Cc1c[nH]cn1)[C@@H](C)O)[C@@H](C)CC)C(=O)N[C@@H](CC(N)=O)C(=O)N[C@@H](Cc1c[nH]c2ccccc12)C(=O)N[C@@H](CC(C)C)C(=O)N[C@H](C(=O)N[C@@H](CCC(N)=O)C(=O)N[C@H](C(=O)N[C@@H](CCCCN)C(=O)N[C@H](C(=O)N[C@H](C(=O)N[C@@H](CC(=O)O)C(=O)O)[C@@H](C)O)[C@@H](C)CC)[C@@H](C)O)[C@@H](C)CC [Teduglutide, [Gly2]-hGLP-2 (1-33)] | some effect | intermittent effect |  |  |  |  |  |  |  | 
H-H[Aib]EGSFTSELATILDK([γGlu-C18 diacid])QAARDFIAWLIQHKITD-OH [Cpd 18] |  |  | 74 | differed from the vehicle group after six days onwards by starting to increase towards the initial weight | lower | approximately 50% | significantly reduced compared to vehicle | approximately 75% | Type 4 or 5 | type 4
